# Assay results reported in patent publication US20250312469A1 (CANGET BIOTEKPHARMA, priority 2024, published 2025).
# Tests used:
# [1] = test system: SK-ES-1 OS tumors; assay: SK-ES-1 osteosarcoma xenograft; type: in vivo, SCID mice; settings: weekly×4
# Description: The SK-ES-1 OS cells (2×10^6 per tumor site) mixed with 50% Matrigel were subcutaneously injected into 2-3 SCID mice in the flank area to establish xenograft tumors. The established OS tumors were implanted into experimental SCID mice for drug efficacy studies. […] The schedule and route were weekly×4 via oral (p.o.) administration (arrowed). Each tumor curve is the mean tumor size+SD from 2-4 SCID mice. […] Each body weight change curve is the mean body weight change+SD from 2-4 SCID mice.
# [2] = in vitro; settings: for microsomal CLint at 0.5 μM / half-life at 0.5 μM: both; for microsomal CLint at 0.5 μM: s9, CLint (intrinsic clearance); for microsomal CLint at 0.5 μM / half-life at 0.5 μM / % Remaining of Initial (n = 1): human liver S9 fraction; for half-life at 0.5 μM: s9, Half-life (min)
# [3] = biological target: T1, UbE2T (Homo sapiens, UniProt Q9NPD8); assay: 3H-FL118 binding, Nanosep 3K centrifugal device; set-up: host or cells: HEK293T; settings: hot FL118 solution 10 μM
# T1 sequence (Q9NPD8 1-197): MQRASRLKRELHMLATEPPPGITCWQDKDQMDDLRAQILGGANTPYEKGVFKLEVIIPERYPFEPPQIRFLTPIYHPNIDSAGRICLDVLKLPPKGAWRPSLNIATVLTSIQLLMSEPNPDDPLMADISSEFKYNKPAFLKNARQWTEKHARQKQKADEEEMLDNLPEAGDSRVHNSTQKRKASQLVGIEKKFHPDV
# Description: (§1) Then, 5-10 μg of the FLAGR M Purification Kit (Signa)-purified Flag-USP2a and Flag-UbE2T proteins in a volume of 20-50 μL, respectively, was transferred into the sample reservoir of a 1.5 mL Nanosep 3K Centrifugal Device. In parallel, a negative control Nanosep 3K Centrifugal Devices containing 10 μg bovine serum albumin (BSA) in 50 μL volume was also set up. Then, the 3 prepared Nanosep 3K Devices were centrifuged at 10,000 rpm for 10-15 min to eliminate the solution and retain the proteins in the sample reservoir. […] Lastly, all three of the sample reservoir devices were transferred into a scintillation vial containing enough scintillation solution to cover the entire sample reservoir devices for tritium (3H) counting on the LS 6500 Scintillation System (Backman Couler™).
# [4] = biological target: T2, USP2a (Homo sapiens, UniProt O75604); assay: 3H-FL118 binding, Nanosep 3K centrifugal device; set-up: host or cells: HEK293T
# T2 sequence (O75604 1-605): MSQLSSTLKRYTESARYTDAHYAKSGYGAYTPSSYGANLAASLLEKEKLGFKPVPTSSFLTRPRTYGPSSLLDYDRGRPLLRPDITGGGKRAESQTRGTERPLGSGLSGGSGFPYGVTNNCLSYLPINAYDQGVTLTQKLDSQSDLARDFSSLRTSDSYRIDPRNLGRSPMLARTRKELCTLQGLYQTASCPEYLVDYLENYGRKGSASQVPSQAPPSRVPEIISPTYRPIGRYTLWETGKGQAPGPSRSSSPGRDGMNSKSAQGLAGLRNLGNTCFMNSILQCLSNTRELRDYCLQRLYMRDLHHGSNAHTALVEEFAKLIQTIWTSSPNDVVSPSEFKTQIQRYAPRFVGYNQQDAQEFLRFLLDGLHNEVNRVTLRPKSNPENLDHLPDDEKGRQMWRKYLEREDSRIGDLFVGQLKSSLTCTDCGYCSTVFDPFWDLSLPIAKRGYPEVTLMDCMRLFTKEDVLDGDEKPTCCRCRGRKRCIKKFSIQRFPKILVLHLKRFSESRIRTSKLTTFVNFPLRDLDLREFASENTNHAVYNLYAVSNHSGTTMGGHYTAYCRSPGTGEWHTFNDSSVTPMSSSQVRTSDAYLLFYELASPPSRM
# Description: as §1
# [5] = Hepatocyte stability; settings: for hepatocyte CLint at 0.5 μM / half-life at 0.5 μM: both, human, hepatocytes; for hepatocyte CLint at 0.5 μM: pH 7.4, Clint (intrinsic clearance); for hepatocyte CLint at 0.5 μM / half-life at 0.5 μM / % Remaining: cryopreserved human hepatocytes; for half-life at 0.5 μM: pH 7.4, Half-life
# [6] = biological target: P-gp (Homo sapiens, UniProt P08183)
# Sequence of P-gp (P08183 whole entry): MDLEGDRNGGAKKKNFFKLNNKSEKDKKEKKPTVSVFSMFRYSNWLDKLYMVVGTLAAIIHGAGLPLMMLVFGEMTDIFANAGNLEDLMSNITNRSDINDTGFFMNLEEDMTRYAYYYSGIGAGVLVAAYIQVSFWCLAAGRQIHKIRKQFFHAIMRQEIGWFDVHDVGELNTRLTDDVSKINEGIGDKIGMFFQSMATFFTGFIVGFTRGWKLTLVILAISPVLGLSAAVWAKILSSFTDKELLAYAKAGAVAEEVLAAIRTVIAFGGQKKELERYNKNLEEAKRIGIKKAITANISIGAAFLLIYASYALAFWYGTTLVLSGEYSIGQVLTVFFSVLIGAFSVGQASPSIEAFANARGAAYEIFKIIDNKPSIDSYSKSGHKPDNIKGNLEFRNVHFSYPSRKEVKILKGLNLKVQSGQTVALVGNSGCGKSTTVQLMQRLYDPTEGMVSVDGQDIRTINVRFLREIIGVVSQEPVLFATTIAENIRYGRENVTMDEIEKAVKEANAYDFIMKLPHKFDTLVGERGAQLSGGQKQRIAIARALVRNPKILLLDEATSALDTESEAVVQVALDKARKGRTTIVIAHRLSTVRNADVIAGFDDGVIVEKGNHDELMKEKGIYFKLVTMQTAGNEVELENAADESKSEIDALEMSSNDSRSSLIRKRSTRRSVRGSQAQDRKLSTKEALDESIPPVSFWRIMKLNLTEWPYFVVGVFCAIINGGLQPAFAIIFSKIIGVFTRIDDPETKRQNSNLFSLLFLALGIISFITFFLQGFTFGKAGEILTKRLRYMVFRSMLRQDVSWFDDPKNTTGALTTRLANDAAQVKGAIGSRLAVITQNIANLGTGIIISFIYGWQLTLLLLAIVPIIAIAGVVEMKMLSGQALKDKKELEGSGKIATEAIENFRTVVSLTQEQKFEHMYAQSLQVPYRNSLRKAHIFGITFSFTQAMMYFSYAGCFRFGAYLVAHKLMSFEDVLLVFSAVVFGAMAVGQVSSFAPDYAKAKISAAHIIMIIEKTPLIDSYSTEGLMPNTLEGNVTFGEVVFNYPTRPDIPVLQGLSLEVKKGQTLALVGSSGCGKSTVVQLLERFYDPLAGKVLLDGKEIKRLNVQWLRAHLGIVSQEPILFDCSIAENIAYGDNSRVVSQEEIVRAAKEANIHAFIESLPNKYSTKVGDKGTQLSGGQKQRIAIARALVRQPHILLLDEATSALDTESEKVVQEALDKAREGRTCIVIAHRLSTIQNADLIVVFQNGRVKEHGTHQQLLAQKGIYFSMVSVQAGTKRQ
# [7] = biological target: human serum albumin (HSA) (Homo sapiens, UniProt P02768); assay: UV spectra (310-450 nm) with HSA; type: physicochemical
# Sequence of human serum albumin (HSA) (P02768 25-609): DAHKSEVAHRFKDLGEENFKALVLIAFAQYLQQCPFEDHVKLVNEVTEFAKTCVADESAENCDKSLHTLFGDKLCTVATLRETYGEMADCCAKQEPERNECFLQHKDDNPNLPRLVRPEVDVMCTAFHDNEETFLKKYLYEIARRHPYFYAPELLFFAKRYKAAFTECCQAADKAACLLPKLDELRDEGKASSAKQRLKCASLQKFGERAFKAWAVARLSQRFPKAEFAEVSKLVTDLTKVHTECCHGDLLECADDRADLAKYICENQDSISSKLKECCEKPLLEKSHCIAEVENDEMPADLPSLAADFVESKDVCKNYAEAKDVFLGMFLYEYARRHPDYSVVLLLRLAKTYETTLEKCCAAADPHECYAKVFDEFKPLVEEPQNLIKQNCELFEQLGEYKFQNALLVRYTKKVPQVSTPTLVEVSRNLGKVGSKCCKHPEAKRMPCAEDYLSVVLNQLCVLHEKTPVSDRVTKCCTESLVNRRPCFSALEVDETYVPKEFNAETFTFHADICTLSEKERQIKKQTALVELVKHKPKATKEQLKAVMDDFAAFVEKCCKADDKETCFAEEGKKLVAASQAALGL
smiles,measurement,setting,value
CCC1(O)C(=O)OCc2c1cc1n(c2=O)Cc2cc3cc4c(cc3nc2-1)OCO4 (stereo not shown) [FL118],antitumor efficacy,[1],effectively eliminated human osteosarcoma xenograft tumors
same,microsomal CLint at 0.5 μM,"[2]; human, calculated (in parentheses)",11.1 µL/min/mg
same,microsomal CLint at 0.5 μM,"[2]; human, bound",< 11.6 µL/min/mg
same,half-life at 0.5 μM,"[2]; human, calculated (in parentheses), calculated half-life longer than the experiment",1.05 h
same,half-life at 0.5 μM,"[2]; human, expressed as > the longest incubation time",> 1 h
same,% Remaining of Initial (n = 1),[2]; 0 min,100%
same,% Remaining of Initial (n = 1),[2]; 10 min,82%
same,% Remaining of Initial (n = 1),[2]; 20 min,73%
same,% Remaining of Initial (n = 1),[2]; 30 min,69%
same,% Remaining of Initial (n = 1),[2]; 60 min,52%
same,half-life,"[2]; human, s9",long half-life
same,3H CPM counts in retained parts,[3],"52,382 ± 1930 CPM"
same,binding of 3H-FL118 to USP2a and UbE2T versus BSA,[4]; 3H counts per min,10-20 fold
same,3H CPM counts in retained parts,[4]; hot FL118 solution 10 μM,"97,436 ± 2960 CPM"
same,half-life,[5]; 0.5 μM,long half-life
same,hepatocyte CLint at 0.5 μM,[5]; calculated (in parentheses),2.96 µL/min/1e6 cells
same,hepatocyte CLint at 0.5 μM,[5]; bound,< 3.85 µL/min/1e6 cells
same,half-life at 0.5 μM,"[5]; calculated (in parentheses), calculated half-life longer than the experiment",2.6 h
same,half-life at 0.5 μM,[5]; expressed as > the longest incubation time (120 min),> 2 h
same,% Remaining,[5]; 0 min,100%
same,% Remaining,[5]; 15 min,79%
same,% Remaining,[5]; 30 min,71%
same,% Remaining,[5]; 60 min,66%
same,% Remaining,[5]; 120 min,58%
same,inhibition of P-gp transport of digoxin,[6]; 1.0 μM FL118,does not inhibit digoxin acting as a BCRP substrate
same,P-gp Inhibition Potential Classification,"[6]; Caco-2, digoxin as substrate, 1.0 μM FL118 or 1.0 μM Valspodar","Negative (without inhibitor, and reduced by <50 with inhibitor: Negative)"
same,interaction with HSA (UV absorbance decrease),[7]; 10 μM in PBS with 4% HSA,strong interaction
same,interaction with HSA (UV absorbance decrease),"[7]; 10 μM, high NaCl salt, 4% HSA",strong interaction
